The text below walks through data of US20160374944A1, “COMPOSITIONS AND METHODS FOR TREATING AND PREVENTING CANCER BY TARGETING AND INHIBITING CANCER STEM CELLS” (priority 2011, published 2016).

For experiment [1], the system named is Pancreatic CSCs. The experiment is described as follows: caspase-3/7 activity. Format: cell-based, human. The protocol:
(§1) (A and B) Induction of apoptosis and activation of caspase-3/-7. Pancreatic CSCs were treated with rottlerin (0-2 μM) for 48 h, and apoptosis and caspase-3/-7 activity were measured by […] and colorometric assay, respectively. […] (C) Pancreatic CSCs were treated with rottlerin (0-1 μM) for 48 h, and the expression of Bcl-2, XIAP and Survivin was measured by qRT-PCR and normalized to GAPDH.
(§2) (A) Regulation of caspase-3/7 activity by EGCG. CSCs were treated with EGCG (0-60 μM) for 24 h, and caspase-3/7 activity was measured as per manufacturer's instructions. […] (B) Regulation of apoptosis by EGCG. CSCs were treated with EGCG (0-60 μM) for 48 h, and apoptosis was measured by TUNEL assay. […] (C) Regulation of apoptosis-related proteins. Pancreatic CSCs were treated with EGCG (0-60 μM) for 36 h. Real time PCR (q-RT-PCR) was performed to examine the expression of Bcl-2, survivin, XIAP, and GAPDH.

For experiment [2], the system named is Pancreatic CSCs. The experiment is described as follows: apoptosis. Format: cell-based, human. The protocol: as §1
(A) Pancreatic CSCs were treated with SAHA (3 and 5 μM) and 5-Aza-dc (2 and 4 μM) and cell viability was measured at 48 h by staining with trypan blue using Vi-CELL analyzer (Beckman Counter). (B) Pancreatic CSCs were untreated (a) or treated with SAHA (b) or 5-Aza-dC (c) for 48 h, and apoptosis was measured by staining with annexin-PI using Accuri Flow Cytometer. (C) Caspase-3/7 activity was measured in pancreatic CSCs treated with SAHA (0.5 and 2 μM) or 5-Aza-dC (1 and 3 μM) for 25 h.
as §2
FIG. 42A and FIG. 42B show graphs showing quercetin synergizes with EGCG to inhibit self-renewal capacity, invasion, migration, and TCF/LEF and Gli transcriptional activities in pancreatic CSCs. (A) Effects of EGCG and quercetin on spheroid and colony formation. Upper Panel, uercetin synergizes with EGCG to inhibit spheroid's cell viability. CSCs were seeded in suspension and treated with EGCG (0-60 μM) with or without quercetin (20 μM) for 7 days. At the end of incubation period, all the spheroids were collected and resuspended. Cell viability was measured by trypan blue assay. […] Lower panel, uercetin synergizes with EGCG to inhibit colony formation. Pancreatic CSCs were seeded in soft agar and treated with various doses of EGCG (0-60 μM) with or without quercetin (20 μM) and incubated at […] for 21 days. At the end of incubation period, colonies were counted. […] (B) Effects of EGCG and quercetin on invasion and migration. Upper panel, Matrigel invasion assay. CSCs were plated onto the Matrigel-coated membrane in the top chamber of the transwell and treated with EGCG (0-60 μM) with or without quercetin (20 μM) for 48 hrs. Cells invaded to the lower chambered were fixed with methanol, stained with crystal violet and counted. […] Lower panel, Transwell migration assay. Pancreatic CSCs were plated in the top chamber of the transwell and treated with EGCG (0-60 μM) with or without quercetin (20 μM) for 48 hrs. Cells migrated to the lower chambered were fixed with methanol, stained with crystal violet and counted. […] (C) Quercetin synergizes with EGCG to induce apoptosis. CSCs were seeded in suspension and treated with EGCG (0-60 μM) with or without quercetin (20 μM) for 7 days. At the end of incubation period, all the spheroids were collected. Apoptosis was measured by TUNEL assay. […] (D) Effects of EGCG and quercetin on TCF/LEF and Gli transcriptional activities. Pancreatic CSCs were transduced with either lentivirus encoding TCF/LEF responsive GFP and luciferase genes or Gli-responsive GFP and luciferase genes. Transduced CSCs were treated with EGCG (40 μM) with or without quercetin (20 μM) for 48 hrs and the luciferase activity was measured.
Pancreatic CSCs were (a) untreated, (b) treated with SAHA, or (c) treated with 5-Aza-dC for 48 hours and apoptosis was measured by staining with annexin-PI using Accuri Flow Cytometer. The results of those studies are illustrated in FIG. 31B.

Another experiment has as its system Breast CSCs. The experiment is described as follows: cell viability by XTT assay. Format: cell-based. The note with it: 3 days. As to the method: Breast CSCs were seeded in 96-well plate and treated with sulforaphane, diallyl trisulphide, resveratrol and curcumin for 3 days. At the end of incubation period, CSCs were harvested and cell viability was measured by XTT assay.
Breast CSCs were seeded in 96-well plate and treated with rottlerin, EGCG, embelin, and honokiol for 3 days. At the end of incubation period, breast CSCs were harvested and cell viability was measured by XTT assay.
(A-D) Breast CSCs were treated with PITC (0-20 μM), BSC, (0-20 μM), sulforaphane (0-20 μM) and honokiol (0-10 μM) for 3 days, and cell viability was measured by XTT assay.
Breast CSCs were treated with rottlerin (0-1 μM) for 3 days, and cell viability was measured by XTT assay.
Breast CSCs were seeded in 96-well plate and treated with sulforaphane, diallyl trisulphide, resveratrol, and curcumin for 3 days and cell viability was measured by XTT assay. The results of those studies are illustrated in FIG. 29.
Breast CSCs were seeded in 96-well plate and treated with Rottlerin, EGCG, embelin, and honokiol for 3 days and cell viability was measured by XTT assay. The results of those studies are illustrated in FIG. 30.

Where [3] appears, read: EGCG 0-60 μM with or without quercetin 20 μM, 7 days, spheroids, TUNEL assay.

Structures are written as SMILES.

As to `O=C(O[C@@H]1Cc2c(O)cc(O)cc2O[C@@H]1c1cc(O)c(O)c(O)c1)c1cc(O)c(O)c(O)c1` [EGCG, epigallocatechin gallate], the caspase-3/7 activity entry with Pancreatic CSCs [1] (EGCG 0-60 μM, 24 h) was “induced caspase-3/7 activity and apoptosis in pancreatic CSCs in a dose-dependent manner”. For the same compound, the apoptosis entry with Pancreatic CSCs [2] (setting [3]) was “induced apoptosis”; in the experiment on Pancreatic CSCs [2] (EGCG 0-60 μM, 48 h, TUNEL assay) it was “induced caspase-3/7 activity and apoptosis in pancreatic CSCs in a dose-dependent manner”. Also, the cell viability entry in the experiment on Breast CSCs is “inhibit cell viability”.
For `O=c1c(O)c(-c2ccc(O)c(O)c2)oc2cc(O)cc(O)c12` [quercetin], the apoptosis entry in the experiment with Pancreatic CSCs [2] (setting [3]) is listed as “induced apoptosis”.
Regarding `CC(=O)c1c(O)c(C)c(O)c(Cc2c(O)c3c(c(C(=O)/C=C/c4ccccc4)c2O)OC(C)(C)C=C3)c1O` [rottlerin], the caspase-3/-7 activity entry in the experiment with Pancreatic CSCs [1] (rottlerin 0-2 μM, 48 h, colorometric assay) was “induced”. For the same compound, the apoptosis result with Pancreatic CSCs [2] (rottlerin 0-2 μM, 48 h) is recorded as “induced”. Further, the cell viability result in the experiment on Breast CSCs is “inhibits cell viability”.
As for `C[S+]([O-])CCCCN=C=S` (stereo not drawn) [sulforaphane], the cell viability result with Breast CSCs is recorded as “inhibit cell viability”.
